Source: patent US20070269892A1, “FORMULATIONS FOR INTRACELLULAR DELIVERY dsRNA” (NASTECH PHARMACEUTICAL COMPANY INC., priority 2006, published 2007)
PEG10k = poly(ethylene glycol) of 10 kD conjugated to the peptide; PEG2k = PEG 2k (PEG2k-maleimide); Mal = maleimide

Legend:
G1498 siRNA = experiment: SYBR-gold dye displacement assay of peptide binding to siRNA, with Scatchard analysis; settings: for Bmax (Scatchard Analysis) / Kd (Scatchard Analysis) / Max Bound siRNA: siRNA 10 μg/mL; for Max Bound siRNA: peptide:siRNA charge ratio 0.05 to 10; for Relative affinity of binding to siRNA: comparison within Table 7
Experimental: Peptides (see Table 4, Example 2) are suspended in Hyclone nuclease free water. Test dilutions of this peptide stock are made in sterile, Nuclease-free eppendorf tubes at a 2× final concentration and buffered to pH 7.4 with 20 mM Phosphate. Nine concentrations of each peptide were made, corresponding to charge ratios of approximately 0.05 to 10. The molar ratios and μg/mL and μM concentrations of each peptide corresponding to these charge ratios are detailed in Tables 1, 2 and 3.
SYBR-gold nucleic acid binding dye stock, a 10,000× concentrate, is supplied by Invitrogen (Carlsbad, Calif.) and stored at −20° C. The concentrate is allowed to equilibrate to room temperature before diluting 1 to 100 in Hyclone nuclease free water. This is then diluted 1 to 10 in the experimental plate for a final concentrate of 10× for the assay. This is the optimal dilution to achieve linear binding to siRNA duplex at a concentration range of up to 50 μg/mL concentration. For higher concentrations, the amount of dye to use may be further optimized.
Samples are mixed directly in the 384 well analysis plate. First 5 μL SYBR-gold dye is pipetted into each well with a multichannel pipette, touching the tip to the bottom of the well to draw out the solution completely. Then 22.5 μL of 2× peptide solution is added with a single channel pipette. Since SYBR-gold will not bind to peptide (and peptide samples without siRNA will verify this assumption), there will be no bleaching effect on fluorescence. Finally, 22.5 μL of 2× siRNA is added with a multichannel pipette. The plate is covered immediately with foil and tapped gently to mix and draw down any droplets on the side of the well.
Fluorescence is measured using the SpectraMax fluorescent plate reader from Molecular Devices (Sunnyvale, Calif.). Plate settings include shaking before reading, one read per well, with excitation wavelength of 495 nm and emission wavelength of 537 nm. The plate is read within 30 minutes of the addition of the siRNA.
Scatchard Plot is a plot of peptide binding ([peptide]bound/[peptide]free) vs. [peptide]bound. The slope of the linear regression of this plot is −1/Kd and Bmax is the […]. Since the concentration of free and bound peptide cannot be measured directly, indirect measurements of siRNA is used for the calculation. Free siRNA is determined from measured fluorescence using the standard curve. Bound siRNA is determined from the standard curve by mass balance from the known initial siRNA concentration (10 μg/mL). Bound peptide is calculated from bound siRNA by assuming the (siRNA:Peptide) bound molar ratio is equal to the (siRNA:Peptide) charge ratio for a single molecule pairing. From this calculated bound peptide amount, the free peptide is calculated by mass balance.
The relative binding of various peptides to siRNA via a rapid screen is assessed by indirect measurement of the displacement of SYBR-gold nucleic acid binding dye. A buffered mixture of siRNA, peptide and SYBR-gold is prepared in the measurement plate in duplicate such that the peptide and SYBR-gold dye undergoes simultaneous competitive binding of the siRNA. The concentration of siRNA is fixed at 10 μg/mL and is combined with a titration of each peptide ranging in a concentration that corresponds to a peptide:siRNA charge ratio between 0.05 to 10. Since SYBR-gold dye only fluoresces when bound to siRNA, peptide binding to the siRNA is inhibits binding of the dye and consequently reduces the fluorescence. Therefore, the amount of fluorescence correlates inversely to the binding of the peptide to the siRNA.

[1] = Particle size analysis of siRNA/peptide polymer formulations; assay type: physicochemical; settings: 24 hours after formulation, siRNA 0.8 μM/peptide polymers, N/P=2
Experimental: Formulations for particle size analysis were prepared in Hepes 11 mM pH7.4, at a siRNA concentration of 0.8 uM (11.59 μg/ml) and then diluted into OPTI-MEM. For nanoparticle size analysis of siRNA/peptide polymers, we used 1 ug RNA/0.8 nmols peptide polymer (based on monomer). The total vol of sample was 1 ml containing 50 ug RNA and 40 nmol peptide polymer in Hepes buffer mannitol (5 mM HEPES, 5% mannitol, pH 7.5) (Filter). The particle size analysis was performed on a Zeta Plus/Zeta potential analyzer.
Briefly, buffer was added first and then concentrated siRNA was added followed by votexing for 3 seconds (at full speed). The peptide polymer was then added followed by votexing for an additional 6 seconds (at full speed). Formulations were maintained at room temperature for 10 minutes. In a 96-well plate format, formulations were then diluted 20× for a final siRNA concentration of 10 nM (6.25 μl into 118.75 μl of OPTI-MEM) or 2× for a final concentration of 100 nM (62.5 μl of formulation into 62.5 μl OPTI-MEM). After dilution, formulations were mixed gently. For positive control preparation, 0.5 μl of HiPerFect was diluted into 12.5 μl of OPTI-MEM and 0.5 μl of siRNA into 12.5 μl of OPTI-MEM, respectively; and incubated at room temperature for 5 minutes, and then combined diluted siRNA and diluted HiPerFect, and incubated at room temperature for 15 minutes. A formulation pH of about 7.4 was chosen in order to minimize reduction of peptide that is polymerized through cycteine disulfide bonds.
Particle size was measured 24 hours after formulation of siRNA 0.8 μM/peptide polymers (N/P=2). […] In summary, all formulation tested in this study formed particles at about or less than about 100 nm.

9L/LacZ cells [2] = experiment: Cellular uptake of peptide/siRNA condensates (fluorescence intensity); assay type: cell-based; settings: study 2; NT peptides at 100 nM, N/P=2 with pluronic F127; PN0593/PN0594 at varying N/P
Experimental: Cells are plated per well in 24-well plates the day before transfection in complete media. The siRNA is labeled, for example with Cy-5 conjugate. The peptide/siRNA condensates are added to cells previously washed with phosphate buffered saline (PBS). Cells were transfected for three hours at 37° C., 5% CO2. Cells were washed with PBS, treated with trypsin, and then analyzed by flow cytometry.
siRNA cell-uptake was measured by the intensity of intracellular Cy5 fluorescence. The cell-uptake assay is used to determine the percentage of cells that contain the Cy5-conjugated siRNA. Mean Fluorescence Intensity (MFI) is used to determine the relative mean quantity of Cy5-conjugated siRNA that entered the cells.

[3] = Glutathione (GSH) mediated siRNA release from disulfide cross-linked peptide siRNA particles; assay type: physicochemical; settings: 5 ug siRNA/4 nmols peptide polymer, GSH 0.5 mg
Experimental: In a separate experiment, glutathione (GSH) was added to disulfide cross-linked peptide siRNA particles (which may be referred to as nanoparticles) in order to detect siRNA release from disulfide cross-linked peptide siRNA condensates. The reduction of the peptide polymers, leading to dissociation and release of siRNA was monitored by continues measurement of the fluorescence intensity of […] over 15 minutes. Briefly, siRNA nanoparticles (N/P: 5 ug siRNA/4 nmols peptide polymer) were treated with reducing agent glutathione (GSH, 0.5 mg scale) and thiazole orange (0.1 ug) in 1 ml sample in HBM buffer pH 7.5. The fluorescence intensity was monitored over 15 min at Ex 498 nm and Emi 546 nm. Samples tested were (1) siRNA and Thiazole orange (No peptide polymer, No GSH), (2) Peptide polymer, siRNA and Thiazole orange (No GSH), and (3) Peptide polymer, siRNA, Thiazole orange and GSH.

9L/LacZ cells [4] = experiment: Micro BCA total protein assay (toxicity); assay type: cell-based; settings: study 1, 100 nM, N/P=2
Experimental: For study 1 and 2, 7,000-10,000 9L/LacZ cells (passage 5-25) were plated in cell culture media in each well of a 96-well plate and grown overnight. Cells (in 75 μl of media) were transfected by adding 25 μl of each formulation to be tested; 4 hours thereafter 100 μl of fresh media is added to each well, which media is replaced with 100 μl of fresh media approximately 16 hours later. […] Cells were harvested 3 days after transfection by the addition of 50 μl of lysis buffer for β-galactosidase and Micro BCA assays.
For study 1 and 2, a Micro BCA assay (Pierce Chemical Company, Rockford, Ill.) was performed in order to measure total protein concentration, as follows: 9L/LacZ cells were washed 1× with phosphate buffered saline (PBS). Then, 50 μl of M-PER® Reagent was added to each well and incubated for 15 minutes at room temperature. After incubation, 10 μl of each lysate was transferred to a new well (using a 96-well plate format) containing 140 μl of dH20, and then 150 μl of Micro BCA working solution was added. The plates were covered, incubated at 37° C. for 2 hours and then the absorbance measured at 562 nm was recorded.

Lac-Z = settings: study 2, 100 nM, N/P=2, 0.1% pluronic F127
Experimental: The LacZ assay was performed three days post-transfection. Cells were rinsed with phosphate buffers saline (PBS) after removal of cell media. The PBS was aspirated and the cells were lysed by the addition of 50 μl M-PER™ to each well and incubating the cells for 15 minutes while gently shaking. Following cell lysis, 10 μl of cell lysate was removed from each well to perform a total protein assay (micro BCA kit, Pierce). In order to measure LacZ activity, 30 μl of cell lysate was transferred to a new plate and 30 μl of ALL-IN-ONE™ beta-galactosidase (β-gal) was added to each well of the new plate. The new plate was covered to avoid light exposure and incubated for 30 minutes at 37° C. Following the 30 minute incubation, the absorbance was read at 405 nm with a μQuant plate reader (Bio-Trek Instrument) to measure LacZ activity.
For study 1 and 2, 7,000-10,000 9L/LacZ cells (passage 5-25) were plated in cell culture media in each well of a 96-well plate and grown overnight. […]
For study 1 and 2, a Micro BCA assay (Pierce Chemical Company, Rockford, Ill.) was performed in order to measure total protein concentration, as follows: 9L/LacZ cells were washed 1× with phosphate buffered saline (PBS). […] The plates were covered, incubated at 37° C. for 2 hours and then the absorbance measured at 562 nm was recorded. […]

## PEG2k-Mal-(Lys)25-amide [PN0925-2]
G1498 siRNA
  Bmax (Scatchard Analysis): 2.077 μMbound/μMfree
  Kd (Scatchard Analysis): 0.150 µM⁻¹
  Max Bound siRNA: 59% mole %

## Cys-Trp-His-(Lys)4-His-(Lys)4-His-Cys (CWHKKKKHKKKKHC) [NT-25]
[1]
  Particle size: about 64.6 nm

## Cys-Trp-(Lys)4-His-(Lys)4-Cys (CWKKKKHKKKKC) [NT-23]
[1]
  Particle size: about 65.7 nm

## PEG2k-Mal-(Lys)10-amide ({PEG2k-Mal}-KKKKKKKKKK-NH2) [PN0933-2]
G1498 siRNA
  Bmax (Scatchard Analysis): 0.241 μMbound/μMfree
  Kd (Scatchard Analysis): 0.326 µM⁻¹
  Max Bound siRNA: 39% mole %

## PEG10k-Mal-(Lys)30-amide [PN0907-2]
G1498 siRNA
  Max Bound siRNA: 58% mole %

## PEG2k-Mal-(Lys)15-amide ({PEG2k-Mal}-KKKKKKKKKKKKKKK-NH2) [PN0930-2]
G1498 siRNA
  Bmax (Scatchard Analysis): 0.560 μMbound/μMfree
  Kd (Scatchard Analysis): 0.250 µM⁻¹
  Max Bound siRNA: 48% mole %

## NH2-PLKPLKPLKPLKPLKPLK-amide (H-PLKPLKPLKPLKPLKPLK-NH2) [PN0594]
9L/LacZ cells [2]
  Uptake: very low

## KKKKKKKKK [PN0860-2, Ac-(Lys)9-amide]
G1498 siRNA
  Bmax (Scatchard Analysis): 0.379 μMbound/μMfree
  Kd (Scatchard Analysis): 0.204 µM⁻¹
  Max Bound siRNA: 43% mole %

## KKKKKKKKKKKKKKKKKK [PN0858-1, Ac-(Lys)18-amide]
G1498 siRNA
  Bmax (Scatchard Analysis): 0.828 μMbound/μMfree
  Kd (Scatchard Analysis): 0.348 µM⁻¹
  Max Bound siRNA: 66% mole %

## Cys-Trp-(Lys)10-Cys (CWKKKKKKKKKKC) [NT-21]
[3]
  Reduction of peptide polymer by GSH with siRNA release: exception
9L/LacZ cells [2]
  Uptake: good uptake
[1]
  Particle size: about 55.7 nm

## KKKKKKKKKKKKKKKKKKKK [PN0924-1, NH2-(Lys)20-amide]
G1498 siRNA
  Bmax (Scatchard Analysis): 0.883 μMbound/μMfree
  Kd (Scatchard Analysis): 0.426 µM⁻¹
  Max Bound siRNA: 71% mole %

## Cys-Trp-His-(Lys)4-His-(Lys)4-Cys (CWHKKKKHKKKKC) [NT-24]
9L/LacZ cells [4]
  Toxicity (total protein expression): no apparent toxicity
[1]
  Particle size: about 82.2 nm

## RRRRRRRRR [PN0861-2, Ac-(Arg)9-amide]
G1498 siRNA
  Relative affinity of binding to siRNA: greatest affinity
  Bmax (Scatchard Analysis): 0.198 μMbound/μMfree
  Kd (Scatchard Analysis): 0.771 µM⁻¹
  Max Bound siRNA: 68% mole %

## PEG10k-Mal-(Lys)15-amide ({PEG10k-Mal}-KKKKKKKKKKKKKKK-NH2) [PN0931-2]
G1498 siRNA
  Bmax (Scatchard Analysis): 0.992 μMbound/μMfree
  Kd (Scatchard Analysis): 0.130 µM⁻¹
  Max Bound siRNA: 47% mole %

## Cys-Trp-(Lys)4-Cys (CWKKKKC) [NT-18]
9L/LacZ cells [2]
  Uptake: good uptake
9L/LacZ cells [4]
  Toxicity (total protein expression): no apparent toxicity
Lac-Z
  Knockdown of gene expression: about 20%
[1]
  Particle size: about 105 nm

## Cys-Trp-(Lys)6-Cys (CWKKKKKKC) [NT-19]
9L/LacZ cells [2]
  Uptake: good uptake
9L/LacZ cells [4]
  Toxicity (total protein expression): no apparent toxicity
Lac-Z
  Knockdown of gene expression: about 27%
[1]
  Particle size: about 78.7 nm

## NH2-VRLPPPVRLPPPVRLPPP-amide (H-VRLPPPVRLPPPVRLPPP-NH2) [PN0593]
9L/LacZ cells [2]
  Uptake: very low

## Cys-Trp-(Lys)8-Cys (CWKKKKKKKKC) [NT-20]
9L/LacZ cells [2]
  Uptake: good uptake
[1]
  Particle size: about 67.6 nm

## Cys-Trp-(Lys)4-Cys-(Lys)4-Cys (CWKKKKCKKKKC) [NT-22]
[1]
  Particle size: about 90.8 nm

## RRRRRRRRRRRRRRRRRR [PN0859-2, Ac-(Arg)18-amide]
G1498 siRNA
  Relative affinity of binding to siRNA: greatest affinity
  Bmax (Scatchard Analysis): 0.495 μMbound/μMfree
  Kd (Scatchard Analysis): 0.929 µM⁻¹
  Max Bound siRNA: 64% mole %
